PubChem BioAssay (NCI)
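Results reflect a 48-hour exposure of cells in 96-well plates to compound at five concentrations. Definition used: TGI = concentration required for complete inhibition of growth.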

Experiments:
Experiment in all cases: growth of human tumour cells (NCI), 48 h
[1] = tested on: 786-0 renal
[2] = tested on: A498 renal
[3] = tested on: A549 NSCLC
[4] = tested on: ACHN renal
[5] = tested on: BT-549 breast
[6] = tested on: CAKI-1 renal
[7] = tested on: CCRF-CEM leukemia
[8] = tested on: DU-145 prostate
[9] = tested on: EKVX NSCLC
[10] = tested on: HCC-2998 colon
[11] = tested on: HCT-116 colon
[12] = tested on: HCT-15 colon
[13] = tested on: HL-60(TB) leukemia
[14] = tested on: HOP-62 NSCLC
[15] = tested on: HOP-92 NSCLC
[16] = tested on: HS 578T breast
[17] = tested on: HT29 colon
[18] = tested on: IGROV1 ovarian
[19] = tested on: K-562 leukemia
[20] = tested on: KM12 colon
[21] = tested on: LOX IMVI melanoma
[22] = tested on: M14 melanoma
[23] = tested on: MALME-3M melanoma
[24] = tested on: MCF7 breast
[25] = tested on: MDA-MB-231 breast
[26] = tested on: MDA-MB-435
[27] = tested on: MDA-N
[28] = tested on: MOLT-4 leukemia
[29] = tested on: NCI-H226 lung
[30] = tested on: NCI-H23 lung
[31] = tested on: NCI-H460 lung
[32] = tested on: NCI-H522 lung
[33] = tested on: NCI/ADR-RES ovarian
[34] = tested on: OVCAR-3 ovarian
[35] = tested on: OVCAR-4 ovarian
[36] = tested on: OVCAR-5 ovarian
[37] = tested on: OVCAR-8 ovarian
[38] = tested on: PC-3 prostate
[39] = tested on: RXF 393 renal
[40] = tested on: SF-268 CNS
[41] = tested on: SF-295 CNS
[42] = tested on: SF-539 CNS
[43] = tested on: SK-MEL-28 melanoma
[44] = tested on: SK-MEL-5 melanoma
[45] = tested on: SK-OV-3 ovarian
[46] = tested on: SN12C renal
[47] = tested on: SNB-19 CNS
[48] = tested on: SNB-75 CNS
[49] = tested on: SR leukemia
[50] = tested on: SW-620 colon
[51] = tested on: T-47D breast
[52] = tested on: TK-10 renal
[53] = tested on: U251 CNS
[54] = tested on: UACC-257 melanoma
[55] = tested on: UACC-62 melanoma
[56] = tested on: UO-31 renal
[57] = tested on: COLO 205 colon
[58] = tested on: RPMI-8226 leukemia
[59] = tested on: SK-MEL-2 melanoma

SMILES: C[C@]12CC[C@H](O)CC1=CC[C@@H]1C2CC[C@]2(C)Nc3c(cnn3-c3ccc(F)cc3)CC12 (some centres not stated)
- TGI [1]: 16 µM
- TGI [2]: > 47.6 µM
- TGI [3]: > 100 µM
- TGI [4]: > 100 µM
- TGI [5]: 38.9 µM
- TGI [6]: > 100 µM
- TGI [7]: > 100 µM
- TGI [8]: > 100 µM
- TGI [9]: > 100 µM
- TGI [10]: > 100 µM
- TGI [11]: > 100 µM
- TGI [12]: > 100 µM
- TGI [13]: > 100 µM
- TGI [14]: 61.1 µM
- TGI [15]: 63.6 µM
- TGI [16]: 22.2 µM
- TGI [17]: > 100 µM
- TGI [18]: > 100 µM
- TGI [19]: > 100 µM
- TGI [20]: > 100 µM
- TGI [21]: > 100 µM
- TGI [22]: > 100 µM
- TGI [23]: > 100 µM
- TGI [24]: > 100 µM
- TGI [25]: > 100 µM
- TGI [26]: > 100 µM
- TGI [27]: > 100 µM
- TGI [28]: > 100 µM
- TGI [29]: > 92.7 µM
- TGI [30]: > 100 µM
- TGI [31]: > 100 µM
- TGI [32]: > 100 µM
- TGI [33]: > 100 µM
- TGI [34]: > 100 µM
- TGI [35]: 55.9 µM
- TGI [36]: > 100 µM
- TGI [37]: > 100 µM
- TGI [38]: > 100 µM
- TGI [39]: 7.7 µM
- TGI [40]: > 100 µM
- TGI [41]: 6.82 µM
- TGI [42]: 4.44 µM
- TGI [43]: > 100 µM
- TGI [44]: > 100 µM
- TGI [45]: 57.3 µM
- TGI [46]: > 100 µM
- TGI [47]: > 100 µM
- TGI [48]: 16.5 µM
- TGI [49]: > 100 µM
- TGI [50]: > 100 µM
- TGI [51]: > 100 µM
- TGI [52]: > 100 µM
- TGI [53]: > 100 µM
- TGI [54]: > 100 µM
- TGI [55]: > 100 µM
- TGI [56]: > 92.4 µM

SMILES: CNCCC=C1c2ccccc2CCc2ccccc21
- TGI [1]: 27.7 µM
- TGI [2]: 28.9 µM
- TGI [3]: 32.1 µM
- TGI [4]: 30.2 µM
- TGI [5]: 29.1 µM
- TGI [6]: 27.7 µM
- TGI [7]: 29.3 µM
- TGI [57]: 21 µM
- TGI [8]: 28.8 µM
- TGI [9]: 29.2 µM
- TGI [11]: 27.8 µM
- TGI [12]: 32.3 µM
- TGI [13]: 31.7 µM
- TGI [14]: 28.2 µM
- TGI [15]: 28.8 µM
- TGI [16]: 51.1 µM
- TGI [17]: 16.1 µM
- TGI [18]: 30.7 µM
- TGI [19]: 30.5 µM
- TGI [20]: 29.6 µM
- TGI [21]: 26.7 µM
- TGI [22]: 14.7 µM
- TGI [23]: 30.3 µM
- TGI [24]: 30.4 µM
- TGI [25]: > 51.9 µM
- TGI [26]: 28.2 µM
- TGI [27]: 29 µM
- TGI [28]: 29.4 µM
- TGI [29]: 38 µM
- TGI [30]: 29.9 µM
- TGI [31]: 28.5 µM
- TGI [32]: 29.2 µM
- TGI [33]: 30.4 µM
- TGI [34]: 23.6 µM
- TGI [35]: 28.6 µM
- TGI [36]: 30.2 µM
- TGI [37]: 31.7 µM
- TGI [38]: 27.4 µM
- TGI [58]: 32.8 µM
- TGI [39]: 22.6 µM
- TGI [40]: 29.6 µM
- TGI [41]: 27.8 µM
- TGI [42]: 44.1 µM
- TGI [59]: 29.2 µM
- TGI [43]: 27 µM
- TGI [44]: 25.5 µM
- TGI [45]: 25.2 µM
- TGI [46]: 29.2 µM
- TGI [47]: 31.6 µM
- TGI [48]: 21.6 µM
- TGI [49]: 32.7 µM
- TGI [50]: 34.6 µM
- TGI [51]: 23.5 µM
- TGI [52]: 28 µM
- TGI [53]: 27.6 µM
- TGI [54]: 19.9 µM
- TGI [55]: 28.3 µM
- TGI [56]: 18.2 µM

SMILES: O=C1OC(c2ccccc2)=N/C1=C\c1cccc(F)c1
- TGI [1]: > 100 µM
- TGI [2]: > 100 µM
- TGI [3]: > 100 µM
- TGI [4]: > 100 µM
- TGI [5]: > 100 µM
- TGI [6]: > 100 µM
- TGI [7]: 72.7 µM
- TGI [57]: > 100 µM
- TGI [8]: > 100 µM
- TGI [9]: > 100 µM
- TGI [10]: > 100 µM
- TGI [11]: > 100 µM
- TGI [12]: > 100 µM
- TGI [13]: 61.2 µM
- TGI [14]: 92.6 µM
- TGI [15]: > 100 µM
- TGI [16]: > 100 µM
- TGI [17]: > 100 µM
- TGI [18]: > 100 µM
- TGI [19]: > 100 µM
- TGI [20]: > 100 µM
- TGI [21]: 45.6 µM
- TGI [22]: > 100 µM
- TGI [24]: > 100 µM
- TGI [25]: > 100 µM
- TGI [26]: > 100 µM
- TGI [27]: > 100 µM
- TGI [28]: 67.9 µM
- TGI [29]: 92.8 µM
- TGI [30]: > 100 µM
- TGI [31]: > 100 µM
- TGI [32]: 40.1 µM
- TGI [33]: 69.9 µM
- TGI [34]: > 100 µM
- TGI [35]: 94.9 µM
- TGI [36]: > 100 µM
- TGI [37]: 64.9 µM
- TGI [38]: > 100 µM
- TGI [58]: 50.1 µM
- TGI [39]: > 100 µM
- TGI [40]: > 100 µM
- TGI [41]: > 100 µM
- TGI [59]: > 100 µM
- TGI [43]: > 100 µM
- TGI [44]: > 100 µM
- TGI [45]: > 100 µM
- TGI [46]: > 100 µM
- TGI [47]: > 100 µM
- TGI [48]: > 100 µM
- TGI [49]: 56.4 µM
- TGI [50]: > 100 µM
- TGI [51]: > 100 µM
- TGI [52]: > 100 µM
- TGI [53]: > 100 µM
- TGI [54]: 88.2 µM
- TGI [55]: > 100 µM
- TGI [56]: > 100 µM

SMILES: CN1C(Cl)=NS(=O)(=O)c2ccccc21
- TGI [1]: > 100 µM
- TGI [2]: > 100 µM
- TGI [3]: > 100 µM
- TGI [4]: > 100 µM
- TGI [5]: > 100 µM
- TGI [6]: 36.6 µM
- TGI [7]: > 100 µM
- TGI [57]: > 100 µM
- TGI [8]: > 100 µM
- TGI [9]: > 100 µM
- TGI [10]: > 100 µM
- TGI [11]: > 100 µM
- TGI [12]: > 100 µM
- TGI [13]: > 100 µM
- TGI [14]: > 100 µM
- TGI [15]: > 100 µM
- TGI [16]: > 100 µM
- TGI [17]: > 100 µM
- TGI [18]: > 100 µM
- TGI [19]: > 100 µM
- TGI [20]: > 100 µM
- TGI [21]: > 100 µM
- TGI [22]: > 100 µM
- TGI [24]: > 100 µM
- TGI [25]: > 100 µM
- TGI [26]: > 100 µM
- TGI [27]: > 100 µM
- TGI [28]: > 100 µM
- TGI [29]: > 100 µM
- TGI [30]: > 100 µM
- TGI [31]: > 100 µM
- TGI [32]: > 100 µM
- TGI [33]: > 100 µM
- TGI [34]: > 100 µM
- TGI [35]: > 100 µM
- TGI [36]: > 100 µM
- TGI [37]: > 100 µM
- TGI [38]: > 100 µM
- TGI [39]: > 100 µM
- TGI [40]: > 100 µM
- TGI [41]: > 100 µM
- TGI [42]: > 100 µM
- TGI [59]: > 100 µM
- TGI [43]: > 100 µM
- TGI [44]: > 100 µM
- TGI [45]: > 100 µM
- TGI [46]: > 100 µM
- TGI [47]: > 100 µM
- TGI [49]: > 100 µM
- TGI [50]: > 100 µM
- TGI [51]: > 100 µM
- TGI [52]: > 100 µM
- TGI [53]: > 100 µM
- TGI [54]: > 100 µM
- TGI [55]: > 100 µM
- TGI [56]: > 100 µM
